Key:
[1] = test system: BALB/c mice; assay: In vivo hAAT transfection efficiency, serum ELISA and ALT; parameters: species or system mouse
Procedure: To assess in vivo hAAT transfection efficiency, mice were administered 200 μL nanoparticles or PBS vehicle i.p. at the doses indicated in the figure legend. Seventy-two hours after injection the mice were bled again for assessment of ALT levels and hAAT expression. hAAT levels were determined via ELISA using serum diluted 1:1 in PBS containing 0.05% casein (PBS-C; 124250; Beantown Chemical), as described previously.^38

[2] = Characterization of nanoparticles (size, zeta potential, DNA encapsulation), Example 2; type: physicochemical; settings: LNPs made with the cationic lipid
Procedure: The concentration of DNA in LNPs after dialysis was quantified using an AccuClear® Ultra High Sensitivity dsDNA Quantification Kit (Biotium #31027) and quantified on a BioTek Synergy H1 plate reader. Encapsulation efficiencies were determined by comparing the amount of DNA in the LNP solution vs. the DNA solution used to make them, after disrupting the LNPs with 0.5% Cl2E10 (Abcam #ab146563) and adjusting for volume differences (i.e.: excess volume added during dialysis and dilution volume during ethanol mixture).

## CCCCCCCCCCCCN(CCCCCCCCCCCC)c1nc(NCCCN)nc(NCCCN)n1 [Lipid 3]
[1]; LP transfection, 4 weeks after treatment
  hAAT levels at 4 weeks: persisted at 4 weeks after treatment
[1]; LPs (50% cationic lipid, 50% DOPE), 10,000 ng hAAT plasmid DNA i.p., 72 hours
  average hAAT levels in serum: 9.5 ng/mL
[2]
  encapsulation of DNA (general): 60-70%
